According to patent US11873499B2, “Methods of increasing nutrient use efficiency” (Institute of Genetics and Developmental Biology Chinese …, priority 2018, dated 2024):

Legend:
[1] = tested on: OsAMT1.1 and OsGS1.2 mRNA; assay: qRT-PCR relative root mRNA abundance in plants treated with GA and/or PAC; format: in vivo, rice; settings: FIG. 4b
From the text: (§1) Data shown as mean±s.e.m. (n=9). b, Relative root mRNA abundance in plants treated with GA and/or paclobutrazol (PAC). Data shown as mean±s.e.m. (n=3). c, Extent of ChIP-PCR OsGRF4-mediated enrichment of GCGG-containing promoter fragments from OsAMT1.1 (fragment 5) and OsGS1.2 (fragment 2) (shown in FIG. 2i) varies in response to treatment with GA and/or PAC. Data shown as mean±s.e.m. (n=3). d, BiFC assays reveal mutual interactions between SLR1, OsGRF4 and OsGIF1 in nuclei of tobacco leaf epidermal cell nuclei. Scale bar, 60 μm. e, Co-IP experiments with Flag-tagged SLR1 and HA-tagged OsGRF4 or HA-tagged OsGIF1. f, FRET images. Donor group: OsGIF1-CFP only; Acceptor group: OsGRF4-YFP only; FRET groups: OsGIF1-CFP and OsGRF4-YFP with and without SLR1. Scale bar, 200 μm. g, Mean N-FRET data for OsGIF1-CFP and OsGRF4-YFP channels. Data shown as mean±s.e.m. (n=6). […] OsGRF4-activated promotion of pOsAMT1.1 and pOsGS1.2 promoter::Luciferase fusion constructs is enhanced by OsGIF1 and inhibited by SLR1. Data shown as mean±s.e.m. (n=6). Statistical analyses used Duncan's multiple range tests, the same lowercase letter denotes non-significant difference between means (P>0.05; panels a-c, and i).
Total RNAs were extracted from different rice plant organs using the TRIzol reagent (Invitrogen), and then treated with RNase-free DNase I (Invitrogen) according to the manufacturer's protocol. […]

[2] = tested on: OsAMT1.1 and OsGS1.2 promoters; assay: ChIP-PCR OsGRF4-mediated enrichment of GCGG-containing promoter fragments; format: in vivo, rice; settings: treated with GA and/or PAC; FIG. 4c
From the text: as §1, with “Statistical analyses used Duncan's multiple range tests, the same lowercase letter denotes non-significant difference between means (P>0.05; panels a-c, and i).” left out
˜2 g of two-week-old seedlings of transgenic p35S::flag-OsGRF4^ngr2 rice plants were fixed with 1% formaldehyde under vacuum for 15 min at 20-25° C., and then homogenized in liquid nitrogen. […] The reverse-crosslinked and precipitated DNA then served as template for quantitative RT-PCR.

[3] = tested on: NJ6 and NJ6-sd1 rice plants; assay: 15N uptake analysis (root 15NH4+ uptake rate) in rice plants treated with GA and/or PAC; format: in vivo; settings: FIG. 4a; for 15NH4+ uptake rate: 100 μM GA (GA3) and/or 2 μM paclobutrazol (PAC)
From the text: as §1
Hydroponic culture conditions were modified from those of Liu (2004)^32. Seeds were disinfected in 20% sodium hypochlorite solution for 30 min, thoroughly washed with deionized water, and then germinated in moist Perlite. 7-day-old seedlings were then selected and transplanted to PVC pots containing 40 L+N nutrient solution (1.25 mM NH4NO3, 0.5 mM NaH2PO4·2H2O, 0.75 mM K2SO4, 1 mM CaCl2), 1.667 mM MgSO4.7H2O, 40 μM Fe-EDTA (Na), 19 μM H3BO3, 9.1 μM MnSO4·H2O, 0.15 μM ZnSO4·7H2O, 0.16 μM CuSO4, and 0.52 μM […], pH 5.5). […]
Following growth in hydroponic culture for 4 weeks, rice root ^15NO3^− and ^15NH4^+ influx measurements were as described elsewhere^37,38. […] Roots and shoots were dried overnight at 80° C., and the ^15N content was measured using the Isoprime 100 (Elementar, Germany).

[4] = tested on: pOscycA1;1 and pOscdc2Os-3 promoters; assay: Transient transactivation assay (promoter::Luciferase) in rice protoplasts; format: cell-based; settings: FIG. 5f
From the text: Data shown as mean±s.e.m. (n=3). Abundances expressed relative to the level in NJ6-sd1. b, ChIP-PCR assays. Diagram depicts the OsPsbS1, OsTPS1 and OsSWEET11 promoters and regions used for ChIP-PCR. c, Transactivation assays. Data shown as mean±s.e.m. (n=9). d, Relative abundances of mRNAs transcribed from cell-cycle regulatory genes. Data shown as mean±s.e.m. (n=3). Abundances expressed relative to the level in NJ6-sd1. e, ChIP-PCR assays. Diagram depicts the OscycA1.1 and Oscdc2Os-3 promoters and regions used for Chl P-PCR. f, Transactivation assays. Data shown as mean±s.e.m. (n=12). Statistical analyses used Duncan's multiple range tests, the same lowercase letter denotes a non-significant difference between means (P>0.05).
˜3-kb DNA promoter fragments from each of OsAMT1.1, OsAMT1.2, OsGS1.2, OsGS2, OsNADH-GOGAT2, OsFd-GOGAT, OsCAB1, OsTPS1, OsSWEET11, OscycA1;1 or Oscdc2Os-3 were amplified from NJ6, and then subcloned into a pUC19 vector containing the firefly LUC reporter gene driven by the 35S minimal TATA box and 5×GAL4 binding elements, thus generating reporter plasmids containing specific promoters fused to LUC. The full-length OsGRF4 cDNA was amplified and fused to sequence encoding GAL4BD, thus generating the effector plasmid pRTBD-OsGRF4. Transient transactivation assays were performed using rice protoplasts as described elsewhere^36. […]

Glutamine synthase = Glutamine synthase (GS) activity in roots and shoots of treated rice plants; format: in vivo; settings: roots and shoots of 2-week-old rice plants; 100 μM GA (GA3); FIG. 13
Experimental: Data shown as mean±s.e.m. (n=3). b, GS activities in shoots of plants treated with 100 μM GA (GA3) and/or 2 μM paclobutrazol (PAC), genotypes as indicated. Data shown as mean±s.e.m. (n=3).
Glutamine synthase and nitrate reductase activities were respectively determined with the Glutamine Synthetase Kit (Solarbio LIFE SCIENCES, BC0910) and the Nitrate Reductase Kit (Solarbio LIFE SCIENCES, BC0080) following the manufacturer's instructions.

OsGRF4 mRNA = OsGRF4 mRNA abundance, effect of GA and PAC; format: in vivo, rice; settings: FIG. 15e, f
From the text: In the absence of GA, SLR1 inhibits OsGRF4-OsGIF1 promotion of OsGRF4 transcription. In the presence of GA, SLR1 is destroyed via proteasome-mediated degradation, this promoting OsGRF4-OsGIF1 activated OsGRF4 transcription.
Total RNAs were extracted from different rice plant organs using the TRIzol reagent (Invitrogen), and then treated with RNase-free DNase I (Invitrogen) according to the manufacturer's protocol. Full-length cDNA was then reverse-transcribed using a cDNA synthesis kit (TRANSGEN, AE311). Subsequent qRT-PCR was performed according to the manufacturer's instructions (TRANSGEN, AQ101), using three independent RNA preparations as biological replicates. Rice Actin2 gene transcripts were used as a reference.

Compound | OsAMT1.1 and OsGS1.2 mRNA abundances [1] | ChIP-PCR enrichment of GCGG motif-containing fragments from the OsAMT1.1 and OsGS1.2 promoters [2] | 15NH4+ uptake rate [3] | OsGRF4-OsGIF1 complex activation of transcription from pOscycA1;1 and pOscdc2Os-3 promoters [4] | effect on the PAC-caused reduction of 15NH4+ uptake ([3]; GA together with PAC) | GS activity (Glutamine synthase) | OsGRF4 mRNA abundance (OsGRF4 mRNA)
CC(C)(C)[C@@H](O)[C@@H](Cc1ccc(Cl)cc1)n1cncn1 (racemic) [PAC, paclobutrazol] | reduced | reduces | reduces |  |  |  | 
C=C1C[C@]23C[C@@]1(O)CC[C@H]2[C@@]12C=C[C@H](O)[C@@](C)(C(=O)O1)[C@H]2[C@@H]3C(=O)O [GA, Gibberellic acid] | increased | promotes | promotes | promotes | abolishes this effect | promotes | GA-regulated
